In PMC5343222, “Inhibitory Activities of Stauntonia hexaphylla Leaf Constituents on Rat Lens Aldose Reductase and Formation of Advanced Glycation End Products and Antioxidant” (BioMed Research International, 2017):

Columns and labels:
[1] = tested on: advanced glycation end products (AGEs) formation; assay: Bovine serum albumin-methylglyoxal assay on AGEs formation; type: biochemical; settings: BSA 50 mg/mL + methylglyoxal 100 mM, 37°C, 24 h; mean ± SEM
Description: Bovine serum albumin (50 mg/mL) was incubated with methylglyoxal (100 mM) in sodium phosphate buffer (0.1 M, pH 7.4) in the presence of various concentrations of the compounds (including a control) at 37°C for 24 h. Then the fluorescent intensity was measured at an excitation wavelength of 355 nm and an emission wavelength of 460 nm with a luminescence spectrometer LS50B (Perkin-Elmer Ltd., Buckinghamshire, England). […] All reagents and samples were sterilized by filtration through […] membrane filters.

[2] = target: T1, rat lens aldose reductase (RLAR) (Rattus norvegicus, UniProt P07943); assay: In vitro determination of RLAR inhibition (NADPH decrease at 340 nm, DL-glyceraldehyde substrate); type: biochemical; settings: crude RLAR from Sprague-Dawley rat lenses; mean ± SEM, three independent experiments in duplicate
T1 construct: the supernatant was collected and used as the RLAR; from tissue; host or cells: lens of Sprague-Dawley rats (crude homogenate supernatant)
Description: Crude RLAR was prepared as follows: lenses […] were removed from Sprague-Dawley rats and frozen at −70°C until use. Noncataractous transparent lenses were pooled and a homogenate was prepared in 0.1 M phosphate buffer saline (pH 6.2). RLAR homogenate was then centrifuged at 9600 ×g for 20 min. After centrifugation in a refrigerated centrifuge, the supernatant was collected and used as the RLAR. All procedures were carried out at 4°C [10].
RLAR activity was assayed spectrophotometrically by measuring the decrease in the absorption of NADPH at 340 nm over a 4 min period using DL-glyceraldehyde as the substrate. Each 1.0 mL cuvette contained equal units of the enzyme, 0.1 M sodium phosphate buffer (pH 6.2), 0.3 mM NADPH, with or without 10 mM of the substrate, and an inhibitor [11].

[3] = DPPH radical scavenging assay; settings: for IC50: 15 min incubation in the dark, mean ± SEM; for inhibitory effect on DPPH (in words): at the same concentration when compared to other compounds
Description: The stable free radical, DPPH, was used to determine the free radical scavenging activity of the SHL extracts. Briefly, a 0.32 mM solution of DPPH in methanol was prepared, and then 180 µl of this solution was mixed with 30 µl of each sample (1.0 to 5.0 mg/mL in methanol). After 15 min of incubation in the dark, the decrease in the absorbance of the solution was measured at 570 nm on a microplate reader (EL800 Universal Microplate reader, Bio-Tek instruments, Winooski, VT, USA).

Molecule: N=C(N)NN [Aminoguanidine, aminoguanidine, reference compound]
- IC50 [1]: 820 ± 79.4 µM
- IC50 AGEs [1]: 90.70 ± 8.71 µg/mL

Molecule: O=C(O)CCc1ccc(O)c(O)c1 [Compound 1, 3-(3,4-dihydroxyphenyl)-propionic acid]
- IC50 [2]: > 1000 µM
- IC50 [1]: 184 ± 17.6 µM
- IC50 [3]: 110 ± 9.39 µM

Molecule: O=C(/C=C/c1ccc(O)c(O)c1)O[C@@H]1C[C@](O)(C(=O)O)C[C@@H](O)[C@H]1O [Compound 2, chlorogenic acid]
- IC50 [2]: 8.35 ± 0.45 µM
- IC50 [1]: > 1000 µM

Molecule: O=C(/C=C/c1ccc(O)c(O)c1)OC[C@H]1O[C@@H](OCCc2ccc(O)c(O)c2)[C@H](O)[C@@H](O)[C@@H]1O [Compound 4, calceolarioside B]
- IC50 [2]: 24 ± 2.3 µM
- IC50 [1]: > 1000 µM
- IC50 [3]: 94.6 ± 6.86 µM

Molecule: O=c1cc(-c2ccc(O)c(O[C@@H]3O[C@H](CO)[C@@H](O)[C@H](O)[C@H]3O)c2)oc2cc(O)cc(O)c12 [Compound 5, luteolin-3′-O-β-D-glucopyranoside]
- IC50 [2]: 7.34 ± 0.35 µM
- IC50 [1]: 118 ± 11.5 µM
- IC50 [3]: 96.3 ± 9.19 µM

Molecule: O=c1c(O[C@@H]2O[C@H](CO)[C@@H](O)[C@H](O)[C@H]2O)c(-c2ccc(O)c(O)c2)oc2cc(O)cc(O)c12 [Compound 6, quercetin-3-O-β-D-glucopyranoside]
- IC50 [2]: 10.4 ± 1.38 µM
- IC50 [1]: > 1000 µM
- IC50 [3]: 122 ± 10.9 µM

Molecule: O=c1cc(-c2ccc(O)c(O)c2)oc2cc(O[C@@H]3O[C@H](CO)[C@@H](O)[C@H](O)[C@H]3O)cc(O)c12 [Compound 7, luteolin-7-O-β-D-glucopyranoside]
- IC50 [2]: 16.1 ± 1.2 µM
- IC50 [1]: > 1000 µM
- IC50 [3]: > 1000 µM
- inhibitory effect on DPPH (in words) [3]: no an inhibitory effect

Molecule: O=C1O[C@H]([C@@H](O)CO)C(O)=C1O [L-ascorbic acid, reference compound]
- IC50 [3]: 54.4 ± 5.73 µM

Molecule: O=c1cc(-c2ccc(O)c(O[C@@H]3O[C@H](CO)[C@@H](O)[C@H](O)[C@H]3O)c2)oc2cc(O)cc(O)c12 [luteolin-3′-O-β-D-glucopyranoside]
- IC50 [2]: 7.34 to 24 µM

Molecule: O=c1cc(-c2ccc(O)c(O)c2)oc2cc(O[C@@H]3O[C@H](CO)[C@@H](O)[C@H](O)[C@H]3O)cc(O)c12 [luteolin-7-O-β-D-glucopyranoside]
- IC50 [2]: 7.34 to 24 µM

Molecule: O=c1c(O[C@@H]2O[C@H](CO)[C@@H](O)[C@H](O)[C@H]2O)c(-c2ccc(O)c(O)c2)oc2cc(O)cc(O)c12 [quercetin-3-O-β-D-glucopyranoside]
- IC50 [2]: 7.34 to 24 µM

Molecule: neochlorogenic acid [Compound 3]
- IC50 [2]: 72 ± 25.8 µM
- IC50 [1]: 115 ± 10.5 µM
- IC50 [3]: > 1000 µM
- inhibitory effect on DPPH (in words) [3]: no an inhibitory effect
